Patent US11492335B2, “Aryl or heteroaryl triazolone derivatives or salts thereof, or pharmaceutical compositions comprising the same” (YUHAN CORPORATION, priority 2018, dated 2022)
Where a name gives a salt, the structure may show the parent alone. Read-outs that look alike come from different tables or passages of the source.

Legend:
Type in all cases: biochemical
[1] = target: T1, recombinant human MAO-B (monoamine oxidase-B) (Homo sapiens, UniProt P27338); assay: Activity on recombinant human MAO-B, Amplex Red method, 1 mM benzylamine substrate; settings: read-out: Inhibitory Activity (IC50, nM) MAO-B
T1 construct: purchased Sigma-Aldrich
T1 sequence (P27338 1-520): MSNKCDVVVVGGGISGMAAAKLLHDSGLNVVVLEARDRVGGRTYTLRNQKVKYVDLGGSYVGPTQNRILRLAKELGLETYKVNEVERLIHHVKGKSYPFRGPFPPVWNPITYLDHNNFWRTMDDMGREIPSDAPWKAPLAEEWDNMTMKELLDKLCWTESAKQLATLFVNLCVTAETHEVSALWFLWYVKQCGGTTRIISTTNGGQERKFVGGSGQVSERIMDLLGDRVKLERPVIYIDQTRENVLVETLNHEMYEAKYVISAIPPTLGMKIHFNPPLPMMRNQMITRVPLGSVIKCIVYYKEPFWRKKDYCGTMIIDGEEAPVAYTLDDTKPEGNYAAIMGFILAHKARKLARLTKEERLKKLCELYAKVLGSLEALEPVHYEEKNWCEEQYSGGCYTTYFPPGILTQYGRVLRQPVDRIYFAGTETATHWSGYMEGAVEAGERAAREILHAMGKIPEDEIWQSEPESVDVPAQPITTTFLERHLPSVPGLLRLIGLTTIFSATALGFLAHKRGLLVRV
Outline: (§1)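 HRP-coupled Amplex Red H2O2 assay, 50 mM sodium phosphate pH 7.4; compounds (8-point 1:3 series, final DMSO <1%) preincubated with enzyme 30 min at 37° C, then 200 uM Amplex Red, 1 U/mL HRP and substrate (MAO-A 0.5 mM tyramine; MAO-B 1 mM benzylamine) added. Resorufin fluorescence (ex 544/em 590 nm) read over 1-2 h; IC50 from four-parameter logistic fit.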

[2] = target: T2, recombinant human DAO (diamine oxidase) (Homo sapiens, UniProt P19801); assay: Activity on recombinant human DAO, Amplex Red method, 1 mM putrescine substrate; settings: recombinant human DAO, read-out: Inhibitory Activity (IC50, nM) DAO
T2 construct: purchased R&D systems
T2 sequence (P19801 20-751): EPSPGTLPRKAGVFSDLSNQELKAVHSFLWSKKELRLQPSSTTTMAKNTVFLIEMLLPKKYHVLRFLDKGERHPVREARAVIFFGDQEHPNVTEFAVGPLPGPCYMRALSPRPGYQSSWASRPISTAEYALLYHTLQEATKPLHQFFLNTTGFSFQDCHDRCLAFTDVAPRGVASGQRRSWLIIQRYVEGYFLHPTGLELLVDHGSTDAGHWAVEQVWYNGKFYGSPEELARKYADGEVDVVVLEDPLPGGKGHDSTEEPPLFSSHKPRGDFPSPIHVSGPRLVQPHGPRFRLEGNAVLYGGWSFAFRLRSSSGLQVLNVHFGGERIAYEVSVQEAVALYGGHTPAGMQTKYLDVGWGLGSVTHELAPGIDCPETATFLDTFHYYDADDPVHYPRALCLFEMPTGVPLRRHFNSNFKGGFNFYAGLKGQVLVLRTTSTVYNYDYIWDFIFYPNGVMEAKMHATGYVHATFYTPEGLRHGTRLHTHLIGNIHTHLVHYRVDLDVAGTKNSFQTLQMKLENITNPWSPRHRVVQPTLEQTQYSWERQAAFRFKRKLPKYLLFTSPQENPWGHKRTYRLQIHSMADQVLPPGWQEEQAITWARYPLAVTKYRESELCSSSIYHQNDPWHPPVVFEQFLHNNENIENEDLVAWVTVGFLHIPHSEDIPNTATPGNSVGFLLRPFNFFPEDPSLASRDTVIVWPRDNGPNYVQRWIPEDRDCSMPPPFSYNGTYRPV
Outline: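 Inhibition of recombinant human DAO (diamine oxidase, R&D systems) was assessed with the Amplex Red Hydrogen Peroxide Assay Kit. Hydrogen peroxide produced from 1 mM putrescine was detected through an HRP-coupled reaction that converts Amplex Red into fluorescent resorufin, read at 544 nm excitation and 590 nm emission. IC50 values came from four-parameter logistic fits in GraphPad Prism.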

[3] = target: T3, recombinant human MAO-A (monoamine oxidase-A) (Homo sapiens, UniProt P21397); assay: Activity on recombinant human MAO-A, Amplex Red method, 0.5 mM tyramine substrate; settings: read-out: Inhibitory Activity (IC50, nM) MAO-A
T3 construct: purchased Sigma-Aldrich
T3 sequence (P21397 1-527): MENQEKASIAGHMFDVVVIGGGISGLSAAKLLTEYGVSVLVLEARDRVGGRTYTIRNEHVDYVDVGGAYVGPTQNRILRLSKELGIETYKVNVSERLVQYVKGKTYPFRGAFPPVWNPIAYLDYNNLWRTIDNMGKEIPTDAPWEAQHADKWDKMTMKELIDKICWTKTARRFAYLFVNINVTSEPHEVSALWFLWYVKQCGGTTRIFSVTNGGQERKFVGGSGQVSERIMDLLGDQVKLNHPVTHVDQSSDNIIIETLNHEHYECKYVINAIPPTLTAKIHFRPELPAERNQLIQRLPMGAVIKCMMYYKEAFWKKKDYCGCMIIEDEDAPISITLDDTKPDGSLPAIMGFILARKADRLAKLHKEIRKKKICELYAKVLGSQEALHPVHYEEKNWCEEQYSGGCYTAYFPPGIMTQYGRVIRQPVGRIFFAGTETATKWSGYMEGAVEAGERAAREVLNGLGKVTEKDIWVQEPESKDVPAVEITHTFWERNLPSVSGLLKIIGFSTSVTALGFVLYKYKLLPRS
Outline: as §1

recombinant human VAP-1 = target: T4, recombinant human VAP-1 (Homo sapiens, UniProt Q16853); assay: Activity on recombinant human VAP-1, Amplex Red HRP-coupled hydrogen peroxide assay, benzylamine substrate; settings: recombinant human VAP-1, benzylamine substrate, read-out: Inhibitory Activity (IC50, nM) human VAP-1
T4 construct: purchased R&D systems
T4 sequence (Q16853 1-763): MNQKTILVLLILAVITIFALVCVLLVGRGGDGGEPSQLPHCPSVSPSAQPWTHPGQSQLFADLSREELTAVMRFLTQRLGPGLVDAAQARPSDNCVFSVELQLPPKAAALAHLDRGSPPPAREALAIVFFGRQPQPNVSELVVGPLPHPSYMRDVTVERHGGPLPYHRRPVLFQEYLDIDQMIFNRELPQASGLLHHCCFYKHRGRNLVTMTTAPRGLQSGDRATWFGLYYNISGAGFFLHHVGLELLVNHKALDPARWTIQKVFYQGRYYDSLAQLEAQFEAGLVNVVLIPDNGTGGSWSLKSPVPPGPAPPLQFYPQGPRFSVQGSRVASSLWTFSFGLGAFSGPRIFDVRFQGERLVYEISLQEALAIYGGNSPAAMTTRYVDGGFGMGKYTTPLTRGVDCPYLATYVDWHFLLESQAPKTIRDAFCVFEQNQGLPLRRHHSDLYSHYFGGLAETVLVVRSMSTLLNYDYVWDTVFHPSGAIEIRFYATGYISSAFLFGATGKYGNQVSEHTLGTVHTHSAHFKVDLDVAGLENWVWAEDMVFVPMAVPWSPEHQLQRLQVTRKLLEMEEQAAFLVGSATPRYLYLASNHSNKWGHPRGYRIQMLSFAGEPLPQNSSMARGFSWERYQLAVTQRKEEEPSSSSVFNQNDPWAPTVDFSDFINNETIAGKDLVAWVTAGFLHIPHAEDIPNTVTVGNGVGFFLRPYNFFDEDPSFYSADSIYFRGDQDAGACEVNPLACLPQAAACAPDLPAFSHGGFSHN
Outline: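 8-point 1:3 dilutions, final DMSO <1%; 30 min enzyme preincubation, 37 °C, pH 7.4 phosphate. Start: 1 mM benzylamine + 200 uM Amplex Red + 1 U/mL HRP. Read ex544/em590 over 1-2 h; % rate decrease vs DMSO control, 4-parameter logistic IC50.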

[4] = 1 mM putrescine, * = between 10 and 100 nM, ** = between 300 and 1000 nM

Row | IC50 ([1]; 1 mM benzylamine substrate) | IC50 ([2]; 1 mM putrescine substrate) | IC50 ([3]; 0.5 mM tyramine substrate) | IC50 (recombinant human VAP-1) | IC50 ([1]; 1 mM benzylamine) | IC50 [2, 4] | IC50 ([3]; 0.5 mM tyramine) | IC50 (recombinant human VAP-1; 30 min preincubation at 37° C.) | IC50 ([2]; 1 mM putrescine substrate, bound qualified by footnote * / **) | Compound
1 | > 10000 nM | < 30 nM | > 100000 nM | 0.53 nM | – | – | – | – | – | NC/C(=C\F)Cn1ncn(-c2cccc(-c3ccc(N4CCOCC4)nc3)n2)c1=O [Example 189, 2-[(2E)-2-(aminomethyl)-3-fluoroprop-2-en-1-yl]-4-[6′-(morpholin-4-yl)-2,3′-bipyridin-6-yl]-2,4-dihydro-3H-1,2,4-triazol-3-one]
2 | > 10000 nM | < 10 nM | > 100000 nM | 0.89 nM | – | – | – | – | – | NC/C(=C\F)Cn1ncn(-c2ccnc(-c3ccc(C(=O)N4CCOCC4)cc3)c2)c1=O [Example 208, 2-[(2E)-2-(aminomethyl)-3-fluoroprop-2-en-1-yl]-4-{2-[4-(morpholin-4-ylcarbonyl)phenyl]pyridin-4-yl}-2,4-dihydro-3H-1,2,4-triazol-3-one hydrochloride]
3 | 110 nM | < 10 nM | > 100000 nM | 0.7 nM | – | – | – | – | – | CC(C)c1nc(-c2cccc(-c3cc(-n4cnn(C/C(=C/F)CN)c4=O)ccn3)c2)no1 [Example 206, 2-[(2E)-2-(aminomethyl)-3-fluoroprop-2-en-1-yl]-4-(2-{3-[5-(propan-2-yl)-1,2,4-oxadiazol-3-yl]phenyl}pyridin-4-yl)-2,4-dihydro-3H-1,2,4-triazol-3-one hydrochloride]
4 | – | – | – | – | 7090 nM | 110 nM | > 100000 nM | 0.88 nM | – | Cc1cc(-c2ccc(-c3noc(C4CC4)n3)cc2)cnc1-n1cnn(C/C(=C/F)CN)c1=O [Example 141, 2-[(2E)-2-(aminomethyl)-3-fluoroprop-2-en-1-yl]-4-{5-[4-(5-cyclopropyl-1,2,4-oxadiazol-3-yl)phenyl]-3-methylpyridin-2-yl}-2,4-dihydro-3H-1,2,4-triazol-3-one hydrochloride]
5 | 650 nM | < 100 nM | > 100000 nM | 1.9 nM | – | – | – | – | – | NC/C(=C\F)Cn1ncn(-c2cnc(-c3ccc(N4CCOCC4)nc3)cn2)c1=O [Example 221, 2-[(2E)-2-(aminomethyl)-3-fluoroprop-2-en-1-yl]-4-{5-[6-(morpholin-4-yl)pyridin-3-yl]pyrazin-2-yl}-2,4-dihydro-3H-1,2,4-triazol-3-one]
6 | 1400 nM | < 10 nM | > 100000 nM | 0.45 nM | – | – | – | – | – | NC/C(=C\F)Cn1ncn(-c2ccnc(-c3ccc(N4CCOCC4)cc3)c2)c1=O [Example 207, 2-[(2E)-2-(aminomethyl)-3-fluoroprop-2-en-1-yl]-4-{2-[4-(morpholin-4-yl)phenyl]pyridin-4-yl}-2,4-dihydro-3H-1,2,4-triazol-3-one hydrochloride]
7 | 235 nM | – | > 100000 nM | 0.74 nM | – | – | – | – | < 100 nM | NC/C(=C\F)Cn1ncn(-c2cc(-c3ccc4c(c3)OCO4)ccn2)c1=O [Example 170, 2-[(2E)-2-(aminomethyl)-3-fluoroprop-2-en-1-yl]-4-[4-(1,3-benzodioxol-5-yl)pyridin-2-yl]-2,4-dihydro-3H-1,2,4-triazol-3-one]
8 | 5700 nM | 90 nM | > 100000 nM | 0.4 nM | – | – | – | – | – | Cn1cc(C#Cc2cccc(-n3cnn(C/C(=C/F)CN)c3=O)n2)cn1 [Example 257, 2-[(2E)-2-(aminomethyl)-3-fluoroprop-2-en-1-yl]-4-{6-[(1-methyl-1H-pyrazol-4-yl)ethynyl]pyridin-2-yl}-2,4-dihydro-3H-1,2,4-triazol-3-one hydrochloride]
9 | – | – | – | – | 1230 nM | < 100 nM | > 100000 nM | 0.62 nM | – | NC/C(=C\F)Cn1ncn(-c2cccc(-c3ccc(N4CCOCC4)nc3)c2)c1=O [Example 86, 2-[(2E)-2-(aminomethyl)-3-fluoroprop-2-en-1-yl]-4-{3-[6-(morpholin-4-yl)pyridin-3-yl]phenyl}-2,4-dihydro-3H-1,2,4-triazol-3-one hydrochloride]
10 | – | – | – | – | > 10000 nM | 19 nM | > 100000 nM | 1.4 nM | – | CC(C)n1cc(-c2cccc(-n3cnn(C/C(=C/F)CN)c3=O)c2)ccc1=O [Example 90, 5-(3-{1-[(2E)-2-(aminomethyl)-3-fluoroprop-2-en-1-yl]-5-oxo-1,5-dihydro-4H-1,2,4-triazol-4-yl}phenyl)-1-(propan-2-yl)pyridin-2(1H)-one hydrochloride]
11 | 940 nM | 18 nM | > 100000 nM | 0.6 nM | – | – | – | – | – | NC/C(=C\F)Cn1ncn(-c2cccc(C#Cc3cccnc3)c2)c1=O [Example 243, 2-[(2E)-2-(aminomethyl)-3-fluoroprop-2-en-1-yl]-4-[3-(pyridin-3-ylethynyl)phenyl]-2,4-dihydro-3H-1,2,4-triazol-3-one hydrochloride]
